Experimental data taken from patent US11992620B2, “Methods of reducing the risk of mortality associated with a medical treatment” (Mallinckrodt Hospital Products IP Limited, priority 2013, dated 2024).
Where two headings read alike, the source gives them in different places.

Assays:
pre-term neonates [1] = details: 5 ppm for 7-21 days, cited from earlier work
pre-term neonates [2] = details: 5 ppm increased to 10 ppm if no response; mean 3 days therapy; cited from earlier work
pre-term neonates [3] = details: 5 ppm while intubated, cited from earlier work
[4] = system: experimental BPD in preterm lambs; details: prolonged therapy, cited from earlier work
pre-term neonates [5] = details: 10 ppm for 1 day, then 5 ppm for 6 days, cited from earlier work
[6] = system: preterm neonates less than 30 weeks gestational age and less than 1250 grams; test: BPD-301 study: multi-center, double blind, placebo-controlled randomized clinical trial of inhaled nitric oxide for prevention of BPD; assay type: in vivo, human; design: Mortality by race, % / ALIVE No (mortality rate), %: concentration or dose not given beside the values; details: for Mortality by race, %: INO N = 229
Experimental: A multi-center, double blind, placebo-controlled randomized clinical trial designated the “BPD-301” study was conducted to examine the efficacy of inhaled nitric oxide in preventing BPD in preterm neonates less than 30 weeks gestational age and less than 1250 grams who required mechanical ventilation or positive pressure support. Patients were identified as (1) American Indian or Alaska Native, (2) Asian, (3) Black, (4) Hispanic, (5) White, or (6) Other. Continuous inhaled nitric oxide or placebo gas administration into the inspiratory limb of the ventilator circuit in the mechanically ventilated subject was accomplished using an INOvent® delivery device. The placebo group received the same dose of nitrogen that the active or treatment group received of inhaled nitric oxide. Administration of inhaled nitric oxide or placebo was begun at a point during the window of time 5 to 14 days after the subject's birth and continued for 24 days thereafter. The starting dose was 20 ppm. A dose reduction schedule was followed: after 72 hours of treatment at 20 ppm, reducing to 10 ppm, and then reducing to 5 ppm on day 10. If an infant was extubated before 24 days, therapy was continued via nasal continuous positive airway pressure or nasal cannula to complete the protocol. 451 infants less than 30 weeks of gestation age were included in this trial, of which 449 were randomized and 2 were not randomized. There was a 1:1 randomization with 220 infants treated with placebo and 229 treated with inhaled nitric oxide.
In order to enroll in the BPD 301 study and receive inhaled nitric oxide for the prevention of BPD, a pre-term neonate could not have already previously been administered inhaled nitric oxide.
Additionally, if the pre-term neonate had undiagnosed pulmonary hypertension and happened to be placed on placebo (nitrogen) for purposes of the BPD-301 study, the pre-term neonate's hypoxic respiratory failure would have worsened and would have likely required immediate treatment with commercial inhaled nitric oxide. This administration of commercial inhaled nitric oxide would have failed the subject from the trial, both reducing the power of the trial and eliminating the subject from the study analysis.
A synopsis of the BPD-301 protocol follows.
The placebo and treatment groups were matched for the following characteristics: gestational age, age at the start of treatment, sex, length at birth, weight, head circumference, respiratory severity scores, apgar scores, and physical exam results.

pre-term neonates [7] = details: cited from earlier work
pre-term neonates [8] = details: 5 ppm for 7 days, cited from earlier work
[9] = median treatment duration 14 days
[10] = FEMALE N = 64, inhaled nitric oxide-treated white infants less than 27 weeks gestational age

SMILES: [N]=O [inhaled nitric oxide, nitric oxide]
- survival without BPD at 36 weeks postmenstrual age (pre-term neonates [1]): 65%
- survival without BPD at 36 weeks postmenstrual age vs placebo (pre-term neonates [1]; p=0.73): no difference
- IVH vs placebo (pre-term neonates [2]): no difference
- death or BPD vs placebo (pre-term neonates [2]): no difference
- IVH/PVL (pre-term neonates [3]): 17.5%
- CLD or death (pre-term neonates [3]; [9]): 71.6%
- CLD or death vs placebo (pre-term neonates [3]; [9]): no difference
- reduction in IVH/PVL (pre-term neonates [3]; vs placebo): 27%
- lung vascular growth ([4]; after VEGF inhibition): improves lung vascular growth
- alveolarization ([4]; experimental BPD in preterm lambs): improves alveolarization
- CLD/death (pre-term neonates [5]): 48.6%
- severe IVH/PVL (pre-term neonates [5]): 12.4%
- reduction in "abnormal or delayed" development (pre-term neonates [5]; p=0.01): 47%
- reduction in CLD/death (pre-term neonates [5]; vs placebo, p=0.03): 24%
- reduction in severe IVH/PVL (pre-term neonates [5]; vs placebo, p=0.04): 47%
- Mortality by race, % ([6]; ALL, p=0.436 vs placebo, Fisher's exact test): 11.35%
- Mortality by race, % ([6]; American Indian or Alaska Native): 0.00%
- Mortality by race, % ([6]; Asian): 0.00%
- Mortality by race, % ([6]; Black): 2.62%
- ALIVE No (mortality rate), % [6, 10]: 4.7%
- ALIVE Yes, % [6, 10]: 95.3%
- Mortality by race, % ([6]; Hispanic): 1.31%
- ALIVE No (mortality rate), % ([6]; MALE N = 56, inhaled nitric oxide-treated white infants less than 27 weeks gestational age): 21.4%
- ALIVE Yes, % ([6]; MALE N = 56, inhaled nitric oxide-treated white infants less than 27 weeks gestational age, p=0.011 male vs female): 78.6%
- Mortality by race, % ([6]; Native Hawaiian or other Pacific Islander): 0.00%
- Mortality by race, % ([6]; Other): 0.87%
- Mortality by race, % ([6]; White): 6.55%
- difference in mortality between treatment and placebo groups ([6]; any other racial category (than white)): no similar difference
- mortality rate, inhaled nitric oxide vs placebo group ([6]; overall trial population, Fisher's exact test p=0.436): not significantly different
- mortality rate vs placebo group ([6]; white population): higher mortality rate
- ALIVE No (deaths), % ([6]; white preterm infants less than 27 weeks gestational age, INO N = 120): 12.5%
- ALIVE Yes, % ([6]; white preterm infants less than 27 weeks gestational age, INO N = 120, p=0.010 vs placebo): 87.5%
- risk of death as compared to placebo ([6]; white, male, preterm infants of less than 27 weeks gestational age treated for prevention of BPD): significant risk of death
- survival without CLD at 36 weeks postmenstrual age (pre-term neonates [7]; 20 ppm for 2 to 4 days, then stepped-down weekly, 24 days): 43.9%
- improvement in survival without CLD at 36 weeks postmenstrual age (pre-term neonates [7]; 20 ppm for 2 to 4 days, then stepped-down weekly, 24 days, vs placebo, p=0.042): 20%
- discharged or off all ventilator support (pre-term neonates [7]; 40 weeks, p=0.01): 65%
- discharged or off all ventilator support (pre-term neonates [7]; 44 weeks, p=0.03): 82%
- death or BPD (pre-term neonates [8]): 77%
- severe intraventricular haemorrhage (IVH) (pre-term neonates [8]): no increase
- reduction in death or BPD (pre-term neonates [8]; vs placebo, p=0.14): 15.4%
